Test results from patent publication US20260256136A1, “STABILIZATION OF ALDEHYDES AND/OR AN ALCOHOLS” (priority 2022, published 2026).
Read-outs that look alike come from different tables or passages of the source.

Experiments:
[1] = Accelerated storage test of aldehyde mixture with additive, 40 ppm Cu (Example 1); format: physicochemical; details: after 55° C. 14 days without cap; for Z9-16:Ald: before test 4.3, blank 3.066023; for C16:Acid: before test 6.7, blank 18.84135; for 16:Ald: before test 7.5, blank 6.659339; for Z11-16Ald: before test 69.4, blank 54.83784, in % (unit assumed)
Procedure: To a mixture of aldehydes containing; (Z)-9-hexadecenal, (Z)-11-hexadecenal, hexadecanal, (Z)-11-hexadecen-1-ol, (Z)-11-hexadecenoic acid and 40 ppm Cu was added an additive as indicated in table 1 below. The mixture was thoroughly mixed and heated without cap in an oven at 55° C. for 14 days as an accelerated storage test.

[2] = Accelerated storage test of aldehyde mixture with additive, 10 ppm Cu (Example 2); details: after 55° C. 14 days without cap; for C16:Acid: before test 1.05, blank 17.72; for Z9-16:Ald: before test 5.09, blank 3.05; for 16:Ald: before test 8.41, blank 6.60; for Z11-16Ald: before test 75.31, blank 54.31
Procedure: The term “accelerated storage test” as used herein refers to a well known protocol for investigating the stability of a particular composition. The protocol is described in for example the memorandum dated 16 Nov. 2012 from The United States Environmental Protection Agency Washington, D.C. 20460 with the subject title “Accelerated Storage Stability and Corrosion Characteristics Study Protocol”. The protocol evaluates product stability at 54° C.±2° C. for 14 days.

[3] = Storage test of aldehyde mixture containing 4-hydroxy-TEMPO with additive (Example 4); format: physicochemical; details: for Heptane / Z11-16:OH / 16:Acid / OH tempo / Z9-16:Ald / 15-1:Ald / 16:Ald / Z11-16:Ald: after 55° C. 14 days without cap; for Heptane: before test 0.04, without additive 0.04; for Z11-16:OH: before test 0.27, without additive 0.06; for 16:Acid: before test 1.05, without additive 6.14; for OH tempo: before test 1.19, without additive 1.11; for Z9-16:Ald: before test 5.09, without additive 3.71; for 15-1:Ald: before test 7.27, without additive 5.83; for 16:Ald: before test 8.41, without additive 6.64; for Z11-16:Ald: before test 75.31, without additive 57.21, in % (unit assumed)
Procedure: To a mixture of aldehydes containing; 4-hydroxy-TEMPO (4-hydroxy-2,2,6,6-tetramethylpiperidin-1-oxyl), (Z)-10-pentenenal, (Z)-9-hexadecenal, (Z)-11-hexadecenal, hexadecanal, (Z)-11-hexadecen-1-ol and (Z)-11-hexadecenoic acid in the composition listed in table 4 below was added up to 1% of an additive in table below. The mixture was thoroughly mixed and heated without cap in an oven at 55° C. for 14 days.

[4] = Storage test of aldehyde mixture containing 4-hydroxy-TEMPO and 10 ppm Copper with additive (Example 3); details: 10 ppm Copper; for Z11-16:OH / Z10-15:Ald / 16:Acid / Z9-16:Ald / 16:Ald / Z11-16:Ald: after 55 C 14 days without cap; for Z11-16:OH: before test 2.16, blank 1.44; for Z10-15:Ald: before test 2.61, blank 2.72; for 16:Acid: before test 3.01, blank 7.94; for Z9-16:Ald: before test 5.33, blank 3.91; for 16:Ald: before test 8.16, blank 6.48; for Z11-16:Ald: before test 74.98, blank 58.18
Procedure: To a mixture of aldehydes containing; 4-hydroxy-TEMPO (4-hydroxy-2,2,6,6-tetramethylpiperidin-1-oxyl), (Z)-10-pentenenal, (Z)-9-hexadecenal, (Z)-11-hexadecenal, hexadecanal, (Z)-11-hexadecen-1-ol (Z)-11-hexadecenoic acid and 10 ppm Copper in the composition listed in table 3 below was added up to 1% of an additive in table below. The mixture was thoroughly mixed and heated without cap in an oven at 55 C for 14 days.

| Molecule | Z9-16:Ald [1] | C16:Acid [1] | 16:Ald [1] | Z11-16Ald [1] | C16:Acid [2] | Z9-16:Ald [2] | 16:Ald [2] | Z11-16Ald [2] | Heptane [3] | Z11-16:OH [3] | 16:Acid [3] | OH tempo [3] | Z9-16:Ald [3] | 15-1:Ald [3] | 16:Ald [3] | Z11-16:Ald [3] | Z11-16:OH [4] | Z10-15:Ald [4] | 16:Acid [4] | Z9-16:Ald [4] | further results |
| --- | --- | --- | --- | --- | --- | --- | --- | --- | --- | --- | --- | --- | --- | --- | --- | --- | --- | --- | --- | --- | --- |
| Cc1c(C)c2c(c(C)c1O)CCC(C)(CCCC(C)CCCC(C)CCCC(C)C)O2 (racemic) [Tocopherol] | 3.379 | 17.008 | 6.914 | 54.67 | 17.70 | 3.09 | 6.65 | 54.82 |  |  |  |  |  |  |  |  |  |  |  |  |  |
| Zinc Pyrithione |  |  |  |  |  |  |  |  | 0.04 | 0.13 | 2.29 | 1.17 | 4.57 | 6.78 | 7.72 | 65.87 | 1.53 | 3.04 | 5.28 | 4.44 | suppressing acid formation and/or degradation of the aldehydes ([3]; 55° C. 14 days): particularly efficient at suppressing acid formation and/or degradation of the aldehydes; suppressing acid formation and degradation of the aldehydes ([4]; 55 C 14 days): particularly efficient at suppressing acid formation and degradation of the aldehydes; 16:Ald [4]: 7.01; Z11-16:Ald [4]: 64.80 |
| CC1(C)CC(O)CC(C)(C)N1[O] [Additive 4-OH-TEMPO, 4-hydroxy-2,2,6,6-tetramethylpiperidin-1-oxyl] |  |  |  |  |  |  |  |  | 0.04 | 0.19 | 3.00 | 1.53 | 4.52 | 6.54 | 7.60 | 67.41 | 1.88 | 2.69 | 4.18 | 4.72 | 16:Ald [4]: 7.51; Z11-16:Ald [4]: 68.82 |
| Cc1nnc(S)s1 [5-Methyl-1,3,4-thiadiazole-2-thiol] |  |  |  |  |  |  |  |  | 0.04 | 0.29 | 1.38 | 1.14 | 4.38 | 6.71 | 8.04 | 71.38 | 2.12 | 2.74 | 3.02 | 4.69 | suppressing acid formation and/or degradation of the aldehydes [3]: particularly efficient at suppressing acid formation and/or degradation of the aldehydes; 16:Ald [4]: 7.81; Z11-16:Ald [4]: 71.97 |
| CC1(C)CC(=O)CC(C)(C)N1 [2,2,6,6-tetramethyl-4-piperidone] |  |  |  |  |  |  |  |  | 0.04 | 0.15 | 4.02 | 1.11 | 4.03 | 6.27 | 6.95 | 61.06 | 1.75 | 3.14 | 5.70 | 3.83 | 16:Ald [4]: 6.41; Z11-16:Ald [4]: 59.27 |
| CN(C)CCO [Dimethylethanolamine] | 0 | 11.55 | 1.242 | 8.128 | 17.70 | 3.09 | 6.65 | 54.82 |  |  |  |  |  |  |  |  |  |  |  |  |  |
| SC1=NCCS1 [2-thiazoline-2-thiol] |  |  |  |  |  |  |  |  | 0.04 | 0.00 | 1.69 | 0.83 | 4.64 | 6.26 | 8.08 | 68.79 | 2.18 | 2.48 | 2.74 | 5.06 | suppressing acid formation and/or degradation of the aldehydes [3]: particularly efficient at suppressing acid formation and/or degradation of the aldehydes; 16:Ald [4]: 8.21; Z11-16:Ald [4]: 75.24 |
| CC1(C)CC(OC(=O)CCCCCCCCC(=O)OC2CC(C)(C)NC(C)(C)C2)CC(C)(C)N1 [Tinuvin 770] | 3.135 | 18.22 | 6.749 | 55.81 | 16.99 | 3.12 | 6.62 | 54.84 |  |  |  |  |  |  |  |  |  |  |  |  |  |
| CC(C)(C)c1cc(O)ccc1O [TBHQ] | 3.367 | 16.52 | 6.913 | 53.69 | 10.34 | 3.67 | 7.75 | 65.65 |  |  |  |  |  |  |  |  |  |  |  |  |  |
| [Na+].[OH-] [Sodium Hydroxide] | 2.927 | 16.74 | 6.224 | 51.62 | 12.93 | 3.18 | 6.65 | 55.97 |  |  |  |  |  |  |  |  |  |  |  |  |  |
